Data on 13 molecules can be found in ChEMBL document CHEMBL5518183, “Broad-spectrum antiviral strategy: Host-targeting antivirals against emerging and re-emerging viruses” (Eur J Med Chem, 2024).

pEC50, pIC50: −log10 of the molar value. Values after ≈ are worked out from the molar mass of the structure shown.

For series [1], the system named is Human immunodeficiency virus 1. The series can be described thus: Antiviral activity against HIV1 infected in H9 cells assessed as reduction in viral replication. Type of series: functional, organism-based. The settings on record: Human immunodeficiency virus 1, H9.
The subject of series [2] is SARS-CoV-2. The series can be described thus: Antiviral activity against SARS-CoV-2 infected in African green monkey Vero E6 cells assessed as reduction in viral replication incubated for 24 hrs by Immunofluorescence assay. In kind it is functional, organism-based. The settings on record: Severe acute respiratory syndrome coronavirus 2, Vero C1008, 24 h.
For series [3], the system named is Influenza A virus. Description: Antiviral activity against influenza A virus H1N1 infected in MDCK cells assessed as reduction in virus induced cytopathic effect by CPE assay. In kind it is functional, organism-based. On the technique in general: Cytopathic effects are the visible damage that an infection or toxin causes in cultured cells.
The test system of series [4] is Influenza B virus. Description: Antiviral activity against Influenza B virus assessed as inhibition of virus-induced cytopathic effect. In kind it is functional, organism-based.
The subject of series [5] is dengue virus type 2. The series can be described thus: Antiviral activity against DENV-2 infected in human Huh-7 cells at MOI of 0.05 assessed as log reduction of intracellular viral titre measured after 60 hrs post infection by RT-PCR analysis. Type of series: functional, organism-based. The settings on record: Huh-7, 60 h.
Series [6] concerns Hepatitis C virus. Description: Antiviral activity against HCV infected in human Huh-7 cells assessed as reduction in viral infection incubated for 72 hrs by qRT-PCR analysis. Type of series: functional, organism-based, Hepacivirus hominis. Particulars: Huh-7, 72 h.
The test system of series [7] is West Nile virus. Description: Antiviral activity against West Nile virus infected in human A549 cells assessed as reduction in virus replication incubated for 72 hrs by MTS assay. Type of series: functional, organism-based. The settings on record: A549, 72 h. Background: Tetrazolium assays rely on reduction of a dye to a coloured formazan, in cell work by metabolically active cells.

Series [8] deals with Dengue virus. Description: Antiviral activity against Dengue virus assessed as inhibition of viral replication. Type of series: functional, organism-based.
Series [9] has as its system Human immunodeficiency virus 1. Description: Antiviral activity against HIV1 TC-1 infected in human PBMC assessed as inhibition of viral replication. The settings on record: Human immunodeficiency virus 1, TC-1, PBMC. In kind it is functional, organism-based.
For series [10], the system named is West Nile virus. The series can be described thus: Antiviral activity against West Nile virus infected in African green monkey Vero 76 cells assessed as reduction in cytopathic effect. In kind it is functional.
Series [11] concerns Western equine encephalitis virus. The series can be described thus: Antiviral activity against Western equine encephalomyelitis virus infected in African green monkey Vero cells assessed as reduction in cytopathic effect. In kind it is functional.
Series [12] concerns Yellow fever virus. Description: Antiviral activity against Yellow fever virus African green monkey Vero cells assessed as reduction in cytopathic effect. Type of series: functional.
For series [13], the system named is Vesicular stomatitis virus. Description: Antiviral activity against Vesicular stomatitis virus infected in human A549 cells assessed as reduction in virus replication. In kind it is functional.
The nature of series [14]: Cytotoxicity against African green monkey Vero cells assessed as reduction in cell growth incubated for 72 hrs by MTT assay. The settings on record: chlorocebus sabaeus. In kind it is toxicity, cell-based.
In series [15] the test system is Hepatitis B virus. Description: Antiviral activity against HBV genotype A infected in human HepG2 cells assessed as inhibition of viral replication. In kind it is functional, organism-based.
Series [16] relates to Chikungunya virus. Description: Antiviral activity against CHIKV infected in Vero 76 cells assessed as reduction in cytopathic effect. Type of series: functional, organism-based.
Series [17] relates to SARS-CoV-2. Description: Antiviral activity against SARS-CoV-2 B.1.1.7 infected in human Calu-3 cells assessed as inhibition of viral infection measured after 48 hrs by Hoechst 33342 staining based analysis. In kind it is functional, organism-based. Particulars: Severe acute respiratory syndrome coronavirus 2, B.1.1.7, Calu-3, 48 h.
Series [18] relates to SARS-CoV-2. Description: Antiviral activity against SARS-CoV-2 […] B.1.351 Beta infected in human Calu-3 cells assessed as reduction of viral growth measured after 48 hrs by luciferase assay. The settings on record: Severe acute respiratory syndrome coronavirus 2. In kind it is functional, organism-based.
Series [19] has as its system Respiratory syncytial virus. Description: Antiviral activity against RSV A2 infected in human HepG2 cells assessed as inhibition of virus induced cytopathic effect measured after 72 hrs by MTT assay. Type of series: functional, organism-based. The settings on record: HepG2, 72 h.
In series [20] the test system is Respiratory syncytial virus. The series can be described thus: Antiviral activity against RSV infected in human HepG2 cells assessed as inhibition of virus induced cytopathic effect measured for 60 mins by MTT assay. Type of series: functional, organism-based. The settings on record: HepG2, 1 h.
Series [21] deals with Human immunodeficiency virus 1. The series can be described thus: Antiviral activity against HIV-1 3B infected in human MT4 cells assessed as reduction in virus induced cytopathic effect incubated for 5 days by Cell Titer Glo luminescent assay. In kind it is functional, organism-based. Particulars: Human immunodeficiency virus 1, 3B, MT4, 120 h.
The test system of series [22] is Hepatitis C virus. Description: Antiviral activity against Hepatitis C virus infected in Huh7.5 cells assessed as reduction in viral growth. In kind it is functional, organism-based, Hepacivirus hominis.
Series [23] has as its system Hepatitis C virus. The series can be described thus: Antiviral activity against HCV infected in human Huh-7 cells assessed as reduction in viral infection. In kind it is functional, organism-based, Hepacivirus hominis.
The nature of series [24]: Cytotoxicity against African green monkey Vero cells assessed as reduction in cell viability measured after 72 hrs by MTT assay. Type of series: toxicity, cell-based. The settings on record: chlorocebus sabaeus.
The test system of series [25] is Ebolavirus. The series can be described thus: Antiviral activity against Ebola virus infected in African green monkey Vero cells incubated for 3 days by immunofocus assay. Type of series: functional, organism-based. Particulars: Orthoebolavirus, 72 h.
Series [26] concerns H9. The series can be described thus: Antitumor activity against human H9 cells assessed as cell growth inhibition. Type of series: functional, cell-based.

With `COc1ccccc1NC(=O)c1ccccc1Sc1ccc([N+](=O)[O-])cc1`, the pEC50 – broadly, the EC50 on a negative log10 scale, so that one unit is a factor of ten – in series [1] is 5.22.
As for `CONC(=O)[C@H]1[C@@H](O)[C@@]2(O)c3c(OC)cc(OC)cc3O[C@@]2(c2ccc(OC)cc2)[C@@H]1c1ccccc1`, the pEC50 in [2] is 8.74.
Consider `O=C(Nc1cccnc1)c1cccs1`, for which the pEC50 in [3] and in series [4] was 5.64 in each case.
For the molecule `CN(/N=C/c1ccccc1C(=O)O)c1nc(-c2ccccc2Cl)cs1`, the pEC50 in [5] is 7.77.
On to `CCCCc1cn(-c2ccc(NC(=O)Nc3ccccc3C)cc2)nn1`, for which the pEC50 in series [6], in series [7], in [8] and in [9] was 6.01 in each case.
As to `COC(=O)c1c(-c2c(Cl)cccc2Cl)noc1-c1cnn(-c2cccc(Cl)c2)c1C(F)(F)F`, the EC90 (commonly the point of the concentration-response curve where the effect stands at 90%) in series [10] was 0.31 nM; in [11], 33.8 nM; in series [12], 12.8 nM; in [13], 38.7 nM. Besides, the CC50 (commonly the concentration at which the toxic effect on the cells reaches its halfway point) at 72 h in series [14] was determined as 5000 nM.
On to `CC[C@@H]1NC(=O)[C@H]([C@@H]2O[C@@H](Sc3cccc(OCc4ccccc4)c3)C[C@H]2C)N(C)C(=O)[C@H](C(C)C)N(C)C(=O)[C@H](CC(C)C)N(C)C(=O)[C@H](CC(C)C)N(C)C(=O)[C@@H](C)NC(=O)[C@H](C)NC(=O)[C@H](CC(C)C)N(C)C(=O)[C@H](C(C)C)NC(=O)[C@H](CC(C)C)N(C)C(=O)CN(C)C1=O`, for which the pIC50 (commonly −log10 of the IC50, conventionally taken in molar units) in [15] is 6.96.
As for `COc1cc2c(cc1C(=O)Nc1ccc(C(C)(C)C#N)cc1)CCCCC2`, the pEC50 in series [16] was 6.57.
`CS(=O)(=O)N[C@@H](CCC(N)=O)C(=O)N[C@@H](Cc1ccccc1)C(=O)N[C@@H](CCCNC(=N)N)C(=O)c1nc2ccccc2s1`: the pIC50 in [17] and in [18] was 8.72 throughout.
In the case of `COCCNC(=O)[C@@H]1C[C@@H](Sc2nc3ccccc3[nH]2)CN1Cc1ccc2c(c1)Cc1ccccc1-2`, the pEC50 in series [19], in series [20], in series [21] and in series [22] was 8.70 each time.
On to `C/C=C/C[C@@H](C)[C@@H](O)[C@H]1C(=O)N[C@@H](CC)C(=O)N(C)C(C)C(=O)N(CC)[C@@H](CC(C)C)C(=O)N[C@@H](C(C)C)C(=O)N(C)[C@@H](CC(C)C)C(=O)N[C@@H](C)C(=O)N[C@H](C)C(=O)N(C)[C@@H](CC(C)C)C(=O)N(C)[C@@H](CC(C)C)C(=O)N(C)[C@@H](C(C)C)C(=O)N1C` (some centres not stated), for which the EC50 (commonly the midpoint of the concentration-response curve) in series [23] worked out at 0.27 µg/mL (≈ 0.219 µM).
Turning to `CCCCCN(CC)c1ccc(Oc2ccc(-c3c(C)c(=O)c4c(F)cccc4n3C)cc2F)cc1`, in series [24], the CC50 at 72 h is 10700 nM. In [25], the pIC50 was 8.15.
With `CCN(CC)S(=O)(=O)c1ccc(OC)c(NC(=O)Cc2ccccc2[N+](=O)[O-])c1`, the pEC50 in [1] is 4.60. For the same molecule, in series [26], the pIC50 was under 4.00.
